Our source for the IC50 and MTAP intact/deleted ratio values is patent publication US11999727B2 (Tango Therapeutics, Inc., priority 2020, dated 2024).

Assay [1] deals with HAP1 MTAP-deleted cell line. Nature of the assay: SDMA in-cell western assay, HAP1 MTAP-deleted. The format is cell-based. To be noted: for IC50: Homo sapiens, HAP1, SDMA in-cell western, HAP1 MTAP-deleted, read-out: HAP1 MTAP deleted IC50; for MTAP intact/deleted ratio: IC50 ratio HAP1 MTAP-intact vs HAP1 MTAP-deleted, SDMA in-cell western. The gist of the method: (§1)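 Readout: in-cell western detection of SDMA. Cells: HAP1 expressing endogenous MTAP and an MTAP-null HAP1 counterpart. Output: IC50.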

Assay [2] relates to HAP1 MTAP-intact cell line. The assay can be described thus: SDMA in-cell western assay, HAP1 MTAP-intact. The format is cell-based. Conditions: Homo sapiens, HAP1, SDMA in-cell western, HAP1 MTAP-intact; read-out: MTAP HAP1 intact IC50. In a few lines:
as §1

Assay [3] addresses T1, PRMT5 (Homo sapiens, UniProt O14744).
T1 construct: purchased Viva (custom protein)
Nature of the assay: PRMT5 biochemical IC50 assay with MTA as cofactor. To be noted: PRMT5, MTA as cofactor; read-out: MTA IC50.

The target in assay [4] is T1, PRMT5. The assay can be described thus: PRMT5 biochemical IC50 assay with SAM as cofactor. Conditions: PRMT5, SAM as cofactor; read-out: SAM IC50.
The target of assay [5] is T1, PRMT5. The assay can be described thus: PRMT5 biochemical IC50 assay with no cofactor. Conditions: PRMT5, no cofactor; read-out: No Cofactor/rel IC50. From the text: Table 1 indicates IC50 values (μM) against PRMT5 for exemplary compounds in the presence of SAM as cofactor, with no cofactor, and with MTA as cofactor, respectively (columns 4-6). […] Ki values can be calculated from the IC50 values as described in the Examples section. As detailed in the Examples section, for the assay performed in the presence of SAM, IC50=Ki×1.5 (Ki=IC50/1.5).

The test system of assay [6] is HAP1 MTAP-deleted cell line. Nature of the assay: Viability assay, MTAP-deleted cell line. Conditions: Homo sapiens, HAP1, viability assay, MTAP-deleted cell line; read-out: HAP1 MTAP deleted viability. The format is cell-based. An excerpt: Table 1 additionally indicates IC50 values in a viability assay for the MTAP-deleted cell line (column 10), indicating the effect of treatment with compound on cell survival.

Some results are limits rather than exact numbers.

T1 sequence (O14744 whole entry): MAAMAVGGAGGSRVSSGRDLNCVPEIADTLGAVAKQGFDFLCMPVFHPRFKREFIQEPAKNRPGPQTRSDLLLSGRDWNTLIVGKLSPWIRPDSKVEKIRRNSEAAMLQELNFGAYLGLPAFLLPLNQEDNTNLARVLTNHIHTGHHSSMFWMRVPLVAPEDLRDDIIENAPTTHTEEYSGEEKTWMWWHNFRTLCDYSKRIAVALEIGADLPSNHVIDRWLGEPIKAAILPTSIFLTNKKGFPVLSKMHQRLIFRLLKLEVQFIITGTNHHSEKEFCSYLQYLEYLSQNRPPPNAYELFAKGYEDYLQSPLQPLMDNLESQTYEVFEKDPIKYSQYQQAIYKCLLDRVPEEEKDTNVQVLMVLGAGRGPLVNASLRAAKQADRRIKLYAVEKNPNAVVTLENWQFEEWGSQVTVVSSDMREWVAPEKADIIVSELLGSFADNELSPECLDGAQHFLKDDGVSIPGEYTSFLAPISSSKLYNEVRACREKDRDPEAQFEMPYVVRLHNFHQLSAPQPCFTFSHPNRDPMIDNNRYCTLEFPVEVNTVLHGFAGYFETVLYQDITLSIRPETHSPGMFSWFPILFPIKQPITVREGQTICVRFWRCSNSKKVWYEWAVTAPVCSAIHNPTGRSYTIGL
T1 sequence (Q9BQA1 whole entry partner): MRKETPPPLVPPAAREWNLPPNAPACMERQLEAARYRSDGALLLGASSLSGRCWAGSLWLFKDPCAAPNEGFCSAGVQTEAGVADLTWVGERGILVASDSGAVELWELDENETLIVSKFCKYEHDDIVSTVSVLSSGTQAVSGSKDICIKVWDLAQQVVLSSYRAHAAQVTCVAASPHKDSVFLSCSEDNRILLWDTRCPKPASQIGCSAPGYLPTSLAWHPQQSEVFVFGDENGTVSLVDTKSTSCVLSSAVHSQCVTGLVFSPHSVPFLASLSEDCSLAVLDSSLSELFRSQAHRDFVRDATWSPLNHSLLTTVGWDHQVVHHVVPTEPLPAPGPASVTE

`CCc1cc(NC(=O)C(=O)N2C[C@@H](C)CC[C@@H]2c2ccc3sc(-c4nccn4C)nc3c2)cnc1N` [Compound 1192, N-(6-amino-5-ethylpyridin-3-yl)-2-((2R,5S)-5-methyl-2-(2-(1-methyl-1H-imidazol-2-yl)benzo[d]thiazol-5-yl)piperidin-1-yl)-2-oxoacetamide]: the IC50 in assay [1] is < 100 nM; in assay [2], 100 to 1000 nM; on PRMT5 [3], < 50 nM; at PRMT5 [4], 50 to 500 nM; on PRMT5 [5] it was < 50 nM; in assay [6], < 1000 nM. In addition, in assay [1], the MTAP intact/deleted ratio entry is “A (an IC50 ratio greater than or equal to 10 fold)”.

Turning to `CCc1cc(NC(=O)C(=O)N2C[C@@H](C)CC[C@@H]2c2ccc3sc(-c4ccncc4)nc3c2)cnc1N` [Compound 1194, N-(6-amino-5-ethylpyridin-3-yl)-2-((2R,5S)-5-methyl-2-(2-(pyridin-4-yl)benzo[d]thiazol-5-yl)piperidin-1-yl)-2-oxoacetamide], the IC50 in assay [1] was < 100 nM; in assay [2], 100 to 1000 nM; at PRMT5 [3], < 50 nM; at PRMT5 [4], 50 to 500 nM; on PRMT5 [5] it was < 50 nM; in assay [6], < 1000 nM. For the same compound, the MTAP intact/deleted ratio result in assay [1] is on record as “A (an IC50 ratio greater than or equal to 10 fold)”.

For `CCc1cc(NC(=O)C(=O)N2C[C@@H](C)CC[C@@H]2c2ccc3sc(CCN(C)C4COC4)nc3c2)cnc1N` [Compound 1195, N-(6-amino-5-ethylpyridin-3-yl)-2-((2R,5S)-5-methyl-2-(2-(2-(methyl(oxetan-3-yl)amino)ethyl)benzo[d]thiazol-5-yl)piperidin-1-yl)-2-oxoacetamide], the IC50 in assay [1] is < 100 nM; in assay [2], < 100 nM; on PRMT5 [3], < 50 nM; at PRMT5 [4] it was 50 to 500 nM; at PRMT5 [5] it was < 50 nM; in assay [6] it was < 1000 nM. Also, the MTAP intact/deleted ratio result in assay [1] was “A (an IC50 ratio greater than or equal to 10 fold)”.

For `CCc1cc(NC(=O)C(=O)N2C[C@@H](C)CC[C@@H]2c2ccc3sc(C[C@@H](C)N(C)C)nc3c2)cnc1N` [Compound 1198, N-(6-amino-5-ethylpyridin-3-yl)-2-((2R,5S)-2-(2-((R)-2-(dimethylamino)propyl)benzo[d]thiazol-5-yl)-5-methylpiperidin-1-yl)-2-oxoacetamide], the IC50 in assay [1] was < 100 nM; in assay [2] it was < 100 nM; on PRMT5 [3], < 50 nM; at PRMT5 [4], 50 to 500 nM; on PRMT5 [5], < 50 nM; in assay [6], < 1000 nM. The MTAP intact/deleted ratio result in assay [1] is “A (an IC50 ratio greater than or equal to 10 fold)”.

With `CCc1cc(NC(=O)C(=O)N2C[C@@H](C)CC[C@@H]2c2ccc3cn(C)nc3c2)cnc1N` [Compound 1199, N-(6-amino-5-ethyl-3-pyridyl)-2-[(5S)-5-methyl-2-(2-methylindazol-6-yl)-1-piperidyl]-2-oxo-acetamide], the IC50 is < 100 nM in assay [1]; 100 to 1000 nM in assay [2]; < 50 nM at PRMT5 [3]; 50 to 500 nM at PRMT5 [4]; < 50 nM on PRMT5 [5]; < 1000 nM in assay [6]. The MTAP intact/deleted ratio result in assay [1] is on record as “A (an IC50 ratio greater than or equal to 10 fold)”.

With `CCc1cc(NC(=O)C(=O)N2C[C@@H](C)CC[C@@H]2c2ccc3sc(-c4cccnc4)nc3c2)cnc1N` [Compound 1200, N-(6-amino-5-ethylpyridin-3-yl)-2-((2R,5S)-5-methyl-2-(2-(pyridin-3-yl)benzo[d]thiazol-5-yl)piperidin-1-yl)-2-oxoacetamide], the IC50 is < 100 nM in assay [1]; 100 to 1000 nM in assay [2]; < 50 nM on PRMT5 [3]; 50 to 500 nM at PRMT5 [4]; < 50 nM at PRMT5 [5]; < 1000 nM in assay [6]. Moreover, the MTAP intact/deleted ratio entry in assay [1] was “A (an IC50 ratio greater than or equal to 10 fold)”.

With `CCc1cc(NC(=O)C(=O)N2C[C@@H](C)CC[C@@H]2c2ccc3sc([C@H]4CN(C)CCO4)nc3c2)cnc1N` [Compound 1202, N-(6-amino-5-ethyl-3-pyridyl)-2-oxo-2-[(2R,5S)-5-methyl-2-[2-[(2R)-4-methylmorpholin-2-yl]-1,3-benzothiazol-5-yl]-1-piperidyl]acetamide], the IC50 in assay [1] was < 100 nM; in assay [2], < 100 nM; on PRMT5 [3], < 50 nM; at PRMT5 [4], 50 to 500 nM; at PRMT5 [5], < 50 nM; in assay [6] it was < 1000 nM. The MTAP intact/deleted ratio result in assay [1] was “A (an IC50 ratio greater than or equal to 10 fold)”.

`COc1cc(NC(=O)C(=O)N2C[C@@H](C)CC[C@@H]2c2ccc3sc(C4CCN(C)CC4)nc3c2)cnc1N` [Compound 1203, N-(6-amino-5-methoxypyridin-3-yl)-2-((2R,5)-5-methyl-2-(2-(1-methylpiperidin-4-yl)benzo[d]thiazol-5-yl)piperidin-1-yl)-2-oxoacetamide]: the IC50 in assay [1] was < 100 nM; in assay [2] it was < 100 nM; at PRMT5 [3] it was < 50 nM; at PRMT5 [4], < 50 nM; on PRMT5 [5], < 50 nM; in assay [6] it was < 1000 nM. Also, in assay [1], the MTAP intact/deleted ratio result is given as “A (an IC50 ratio greater than or equal to 10 fold)”.

As to `CCc1cc(NC(=O)C(=O)N2C[C@@H](C)CC[C@@H]2c2ccc(OCC3CCN(C)CC3)cc2)cnc1N` [Compound 1206], the IC50 is < 100 nM in assay [1]; 100 to 1000 nM in assay [2]; < 50 nM on PRMT5 [3]; 50 to 500 nM at PRMT5 [4]; < 50 nM at PRMT5 [5]; < 1000 nM in assay [6]. In addition, the MTAP intact/deleted ratio result in assay [1] is “A (an IC50 ratio greater than or equal to 10 fold)”.

As for `CCc1cc(NC(=O)C(=O)N2C[C@@H](C)CC[C@@H]2c2ccc3sc(C45CC(CN(C)C4)C5)nc3c2)cnc1N` [Compound 1212, N-(6-amino-5-ethylpyridin-3-yl)-2-((2R,5S)-5-methyl-2-(2-(3-methyl-3-azabicyclo[3.1.1]heptan-1-yl)benzo[d]thiazol-5-yl)piperidin-1-yl)-2-oxoacetamide], the IC50 in assay [1] was < 100 nM; in assay [2], < 100 nM; on PRMT5 [3], < 50 nM; at PRMT5 [4], < 50 nM; on PRMT5 [5], < 50 nM; in assay [6], < 1000 nM. The MTAP intact/deleted ratio entry in assay [1] was “B (an IC50 ratio greater than or equal to 3 fold but lower than 10 fold)”.

On to `Cc1cc(NC(=O)C(=O)N2C[C@@H](C)CC[C@@H]2c2ccc3sc(-c4cn(C)cn4)nc3c2)cnc1N` [Compound 1214, N-(6-amino-5-methylpyridin-3-yl)-2-((2R,5S)-5-methyl-2-(2-(1-methyl-1H-imidazol-4-yl)benzo[d]thiazol-5-yl)piperidin-1-yl)-2-oxoacetamide], for which the IC50 in assay [1] is < 100 nM; in assay [2], 100 to 1000 nM; at PRMT5 [3] it was < 50 nM; at PRMT5 [4], 50 to 500 nM; at PRMT5 [5], < 50 nM; in assay [6], < 1000 nM. The MTAP intact/deleted ratio entry in assay [1] is “A (an IC50 ratio greater than or equal to 10 fold)”.
